Data from US11247966B2, “4-(p-trifluoromethylbenzyl)-3-fluoro-1,2,4-triphenylamine derivative and pharmaceutical composition and applications thereof” (HEBEI MEDICAL UNIVERSITY, priority 2018, dated 2022).
Where two headings read alike, the source gives them in different places.

Experiments:
KCNQ2/3 channels = KCNQ2/3 channels (Homo sapiens, UniProt O43525+O43526); test: High-throughput determination of Rb+ efflux by atomic absorption spectrometry; type: cell-based
Description: The determination technique of Rb^+ efflux by AAS is safer and faster in high-throughput screening of potassium channel regulators, and has the characteristics of directly reflecting the activity of ion channels and the regulatory role of regulators. Rb has a similar atomic size to K, and the potassium channel is permeable to Rb^+, the opening or closing of the potassium channel can be determined by measuring the concentration of Rb^+ efflux. Rb has a specific atomic absorption at 780 nm and the Rb^+ concentration can be measured by AAS. Therefore, AAS can be used to screen potassium channel openers or shutters by the high-throughput determination technique for measuring Rb^+ efflux.
Chinese hamster ovary (CHO) cells with stable KCNQ2/3 channels in logarithmic growth phase are inoculated on a 96-well plate at a density of 2×10^4 cells/well. Three wells are provided for each concentration. Solvent control wells having the corresponding concentrations are arranged. After adherent growth overnight, the culture medium is discarded, and 200 μl of a loading buffer containing RbCL is added, and culturing is performed at 37° C. and under 5% CO2 for 3 h. The loading buffer is then discarded and washing is performed 3 times with a wash buffer. To screen the channel opener, the compound to be tested is diluted in a depolarizing buffer and 200 μl of the above solution is added into the cells and reacted for 10 min. After incubation for 10 min, 200 μl of a supernatant is carefully transferred into another 96-well plate. Rb^+ atomic absorption at 780 nm is determined by an ICR8000 atomic absorption spectrometer. The relative efflux is calculated according to the formula Fsupern=(Rb_supern/cpd/Rb_supern/d)*100.

KCNQ2/3 (Kv7.2/7.3) = KCNQ2/3 (Kv7.2/7.3) (Homo sapiens, UniProt O43525+O43526); test: Electrophysiological patch clamp determination, KCNQ2/3; type: cell-based; settings: whole-cell patch clamp, CHO cells; read-out: EC50 value, activation of KCNQ2/3 (Kv7.2/7.3)
Procedure: (§1) CHO cells culture: CHO cells with stable KCNQ channels are cultured in a DMEM culture solution containing 10% fetal bovine serum, 100 U/ml penicillin and streptomycin, and then digested and passaged by pancreatin. The cells are placed on a 12 mm round cover glass and cultured in a 24-well plate.
(§2) Cell membrane current record by patch clamp technique: HEKA-EPC10 is used as a patch clamp amplifier. Amphotericin B (final concentration of 0.1-0.2 mg/ml) is used in the electrode to record the perforation patch clamp. After polishing, the microelectrode is filled with an electrode inner fluid, and the resistance value is controlled to be 2-4 MΩ. The electrode inner fluid used for recording CHO cells is (mM): KCl 160, HEPES 5, MgCl2 3, CaCl2 1 and EGTA 3, and the pH is adjusted to 7.4 with KOH. The components of the extracellular fluid are (mM): NaCl 160, KCl 2.5, HEPES 10, glucose 8, MgCl2 1 and CaCl2 5. After forming a giant resistance seal between the microelectrode and the cell membrane, the current is recorded under voltage clamping.

KCNQ4 (Kv7.4) = KCNQ4 (Kv7.4) (Homo sapiens, UniProt P56696); test: Electrophysiological patch clamp determination, KCNQ4; type: cell-based; settings: CHO cells
Procedure: as §1, §2

KM mice = test: Pentylenetetrazole (PTZ)-induced epilepsy model; type: in vivo; settings: PTZ 85 mg/kg s.c.
Procedure: Experimental conditions: room temperature 25±1° C.
Experimental animals: KM mice, half male and half female, weighing 18-25 g, 10-12 mice in each group, adapt to the environment for 3 days and eat and drink freely.
Methods: the day before the experiment, each animal is labeled to ensure that the determination time of each animal after administration is consistent. The experimental animals fast for more than 8 h the night before the experiment. […] After the drugs are absorbed, the model is made by the subcutaneous administration of 85 mg/kg PTZ (administration volume of 0.1 ml/10 g) body weight to the neck and back. After PTZ administration, time is counted and the model is put into the transparent observation box in time to keep the environment quiet. The seizure threshold and the number of non-seizure animals are recorded. […] The seizure threshold and the rate of non-death mice (i.e. protective rate) within 12 h after constructing the mold are compared.

Kunming mice = test: Maximum electroshock seizure (MES) experimental model; type: in vivo
Procedure: Methods: Kunming mice, male, 18-22 g, are placed in the experimental environment 3 days before the experiment to make them adapt to the environment, eat and drink freely; the room temperature is 23-25° C.
The experimental instrument is YLS-9A physiological and pharmacological electronic stimulator: continuous wave output; wave width of 20 ms; gap of 10 ms; wave number of 70; voltage of 60 V; current limit of 3.5 mA.
Methods: 24 hours before the formal experiment, the mice are screened, the stimulator is set according to the above parameters, the mouse ears are clamped with crocodile clip of the stimulator, and the stimulation is started. The ankylosis of the hind limbs of the mice is taken as a positive index to screen the qualified (positive) mice and eliminate the substandard mice. In the formal experiment, the grouping is randomly performed with 10 mice in each group according to the experimental scheme, and the electrical stimulation is carried out. If no ankylosis is found in the hind limbs, it is effective (positive).

[1] = Rb+ efflux by AAS, CHO cells with stable KCNQ2/3 channels, read-out: KCNQ2/3 EC50
[2] = intraperitoneal 1 mg/kg body weight

KCNQ2/3 channels, sequence (O43525 whole entry): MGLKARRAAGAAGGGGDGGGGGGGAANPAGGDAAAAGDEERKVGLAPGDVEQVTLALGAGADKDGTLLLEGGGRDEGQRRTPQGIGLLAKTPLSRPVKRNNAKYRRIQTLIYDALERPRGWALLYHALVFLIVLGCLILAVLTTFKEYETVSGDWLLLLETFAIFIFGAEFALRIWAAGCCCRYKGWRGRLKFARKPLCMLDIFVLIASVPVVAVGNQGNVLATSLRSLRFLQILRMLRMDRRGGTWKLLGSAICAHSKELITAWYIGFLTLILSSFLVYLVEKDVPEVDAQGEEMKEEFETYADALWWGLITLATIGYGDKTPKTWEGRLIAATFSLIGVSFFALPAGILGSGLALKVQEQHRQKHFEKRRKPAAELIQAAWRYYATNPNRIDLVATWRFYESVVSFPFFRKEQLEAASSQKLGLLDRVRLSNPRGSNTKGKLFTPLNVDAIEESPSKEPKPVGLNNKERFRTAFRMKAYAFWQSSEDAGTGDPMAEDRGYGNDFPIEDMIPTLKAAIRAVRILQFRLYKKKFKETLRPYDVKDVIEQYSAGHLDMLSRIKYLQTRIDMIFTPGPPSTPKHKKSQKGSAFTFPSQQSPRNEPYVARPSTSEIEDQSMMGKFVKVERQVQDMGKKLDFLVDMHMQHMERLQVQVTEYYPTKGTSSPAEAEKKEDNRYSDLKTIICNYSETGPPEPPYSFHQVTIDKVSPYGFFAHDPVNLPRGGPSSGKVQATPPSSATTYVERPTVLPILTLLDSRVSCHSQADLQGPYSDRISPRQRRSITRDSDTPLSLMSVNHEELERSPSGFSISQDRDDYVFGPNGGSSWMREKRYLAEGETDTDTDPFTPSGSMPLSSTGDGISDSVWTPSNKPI
KCNQ2/3 channels, sequence (O43526 whole entry): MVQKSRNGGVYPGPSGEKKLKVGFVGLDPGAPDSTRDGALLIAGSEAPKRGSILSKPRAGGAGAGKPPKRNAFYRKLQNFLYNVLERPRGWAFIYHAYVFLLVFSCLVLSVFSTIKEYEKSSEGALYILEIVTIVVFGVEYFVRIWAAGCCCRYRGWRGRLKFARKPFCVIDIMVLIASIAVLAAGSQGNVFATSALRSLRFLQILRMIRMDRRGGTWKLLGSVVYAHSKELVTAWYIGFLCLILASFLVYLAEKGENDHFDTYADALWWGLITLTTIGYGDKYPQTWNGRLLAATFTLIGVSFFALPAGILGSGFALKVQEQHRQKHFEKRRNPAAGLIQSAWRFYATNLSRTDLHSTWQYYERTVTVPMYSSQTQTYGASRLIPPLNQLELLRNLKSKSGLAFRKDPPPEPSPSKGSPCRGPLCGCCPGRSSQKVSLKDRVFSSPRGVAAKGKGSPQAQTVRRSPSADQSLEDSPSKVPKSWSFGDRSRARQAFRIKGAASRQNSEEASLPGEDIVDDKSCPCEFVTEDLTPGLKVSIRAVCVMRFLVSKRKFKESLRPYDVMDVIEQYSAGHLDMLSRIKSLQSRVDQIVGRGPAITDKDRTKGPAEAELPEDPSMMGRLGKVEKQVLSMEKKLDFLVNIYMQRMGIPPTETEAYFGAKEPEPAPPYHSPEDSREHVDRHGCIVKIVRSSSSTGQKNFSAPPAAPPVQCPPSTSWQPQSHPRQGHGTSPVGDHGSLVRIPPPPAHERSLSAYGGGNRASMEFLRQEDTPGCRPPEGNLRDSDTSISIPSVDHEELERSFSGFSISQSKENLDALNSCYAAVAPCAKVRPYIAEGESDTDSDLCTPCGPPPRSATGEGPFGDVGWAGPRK

| SMILES | EC50 (KCNQ2/3 channels; [1]) [nM] | melting point [°C] | also measured |
| --- | --- | --- | --- |
| Nc1c(NC(=O)CCCc2ccccc2)ccc(NCc2ccc(C(F)(F)F)cc2)c1F [Compound 7] | 5260 ± 820 | 198.5 to 199.5 |  |
| Nc1c(NC(=O)CCc2ccco2)ccc(NCc2ccc(C(F)(F)F)cc2)c1F [Compound 6, N-(2-amino-3-fluoro-4-(4-trifluoromethylbenzylamino)-phenyl)-3-furanyl-2-propanamide] | 3580 ± 730 | 212.2 to 213.5 |  |
| Nc1c(NC(=O)CCC2CCCC2)ccc(NCc2ccc(C(F)(F)F)cc2)c1F [Compound 1, N-(2-amino-3-fluoro-4-(4-trifluoromethylbenzylamino)-phenyl)-cyclopentyl propionamide] | 150 ± 40 |  | EC50 (KCNQ2/3 (Kv7.2/7.3)): 380 ± 100 nM; opening activity to KCNQ4 (Kv7.4) (KCNQ4 (Kv7.4)): relatively small; protective rate (non-death mice within 12 h) (KM mice; 3 mg/kg body weight i.p.): 100%; seizure threshold (KM mice; 3 mg/kg body weight i.p.): 867.21 ± 152.51 s; protective rate (non-death mice within 12 h) (KM mice; 5 mg/kg body weight i.p.): 100%; seizure threshold (KM mice; 5 mg/kg body weight i.p.): 1185.96 ± 134.28 s; effective rate (no ankylosis of hind limbs) (Kunming mice; [2]): 100% |
| CC(C)(C)CC(=O)Nc1ccc(NCc2ccc(C(F)(F)F)cc2)c(F)c1N [Compound 2, N-(2-amino-3-fluoro-4-(4-trifluoromethylbenzylamino)-phenyl)-3,3-dimethyl Butyramide] | 210 ± 80 |  | effective rate (no ankylosis of hind limbs) (Kunming mice; [2]): 90% |
| Nc1c(NC(=O)CCN2CCCCC2)ccc(NCc2ccc(C(F)(F)F)cc2)c1F [Compound 5, N-(2-amino-3-fluoro-4-(4-trifluoromethylbenzylamino)-phenyl)-3-piperidinyl-1-propionamide] | 750 ± 120 | 202.1 to 203.5 |  |
| CCOC(=O)Nc1ccc(NCc2ccc(F)cc2)cc1N [RTG, Retigabine, reference compound] |  |  | EC50 (KCNQ2/3 channels): 860 ± 180 nM; protective rate (non-death mice within 12 h) (KM mice; 15 mg/kg body weight i.p.): 50%; seizure threshold (KM mice; 15 mg/kg body weight i.p.): 858.17 ± 528.48 s; effective rate (no ankylosis of hind limbs) (Kunming mice; intraperitoneal 10 mg/kg body weight): 80% |
| Nc1c(NC(=O)CC2CCCC2)ccc(NCc2ccc(C(F)(F)F)cc2)c1F [Compound 4, N-(2-amino-3-fluoro-4-(4-trifluoromethylbenzylamino)-phenyl)-cyclopentyl Acetamide] | 580 ± 130 | 196.9 to 197.5 |  |
| Nc1c(NC(=O)C2CCCC2)ccc(NCc2ccc(C(F)(F)F)cc2)c1F [Compound 3, N-(2-amino-3-fluoro-4-(4-trifluoromethylbenzylamino)-phenyl)-cyclopentyl Formamide] | 2830 ± 210 | 222.9 to 223.5 |  |
